Measured values: patent publication US20260364186A1, “Chemical Conjugates, Compositions, and Methods of Preparation and Use Thereof” (Transfection Holdings Limited, priority 2022, published 2026)

Legend:
Format in all cases: cell-based, human
[1] = test system: NZM40 (NRAS Q16H) melanoma cells; assay: FACS uptake of BODIPY FL conjugates, 200 nM, 5 min (Example 2)
Procedure: FIG. 2. Conjugate compounds coupled to BODIPY FL were tested for uptake using 200 nM each conjugate and 5 minute incubation with melanoma cell line NZM11 (BRAF V600E mutant metastatic melanoma), melanoma cell line NZM40 (NRAS Q16H mutant metastatic melanoma) and melanoma cell line NZM9 (BRAF and NRAS wildtype metastatic melanoma). Mean fluorescent intensities (MFI). 2,000 cells (NZM11), 1,000 cells (NZM40) and 500-1,000 cells (NZM9). Cells were sorted by FACS. Bars represent mean±SD. Results were from a single experiment done in triplicate.
NZM40 is an adherent cell line which was originally derived from a metastatic melanoma from a patient, in 2004. This human metastatic melanoma is identified with code CBA-1381 from Cell bank Australia. […] Ras is a superfamily of proteins implicated in cell growth, survival and differentiation. NRAS (neuroblastoma rat sarcoma) was the first oncogene recognized in melanoma and mutations in NRAS account for 20% of all melanomas. NRAS mutations primarily occur at position 61 and involve amino acid change from glutamine (Q) to arginine (R), lysine (K), leucine (L) or histidine (H). These mutations block NRAS into a GTP-bound state damaging its GTPase activity (FIG. 1). Patients are usually older (>55 years) with previous UV exposure. See Garcia-Alverez et al., 2021.
For screening, NZM11, NZM40 and NZM9 cells were suspended at […] dispensed into 96 well plates and left to settle for 48 hours. Then, 10 μL of 10 mM stock solutions in DMSO for the conjugates were diluted with HBSS to afford 400 nM solution. Next, 400 nM compounds and DMSO solutions were diluted 1:1 with MEMα media to afford 200 nM solutions. After 48 hours the media was removed from the 96 well plates and 200 μL of 200 nM conjugates solutions dispensed to each well (in triplicate) and incubated for 5 minutes at 37 °C. After 5 minutes, the media was removed and cells washed with PBS. Then, 100 μL of TrypLE trypsin (ThermoFisher Scientific) were added to each well and incubated for 5 minutes at 37 °C after which, 100 μL of MEMα media were added and samples were sorted through FACS biosort. The FACS results output were represented as the mean of the fluorescence intensities (in arbitrary units) measured for cells sorted in every sample.

[2] = test system: monocytes; assay: FACS uptake of BODIPY FL conjugates in PBMCs (Example 3); conditions: 135 nM
Procedure: (§1) FIG. 3A. Conjugate compounds coupled to BODIPY FL were tested for uptake using 135 nM each conjugate and 4.5 minute incubation with human lymphocytes, monocytes and neutrophils (from a healthy donor). Mean fluorescent intensities (MFI). 1,000 cells (lymphocytes), 500 cells (monocytes) and 250 cells (neutrophils) sorted by FACS. Bars represent mean±SD. Results represent a single experiment done in duplicate.
(§2) In addition to this, 25 mL of full blood was collected from a healthy donor in lithium-heparin vacutainer. Peripheral blood mononuclear cells (PBMCs) were collected after ficoll separation. PBMCs then were centrifuge at 400 g for 5 minutes. Supernatant was removed from the cells and resuspended with 20 mL of HBSS with a final concentration of 417,500 cells/mL. Then, 479 μL of cells suspension were poured into Eppendorf tube and 1000 μL of 200 nM drug solution in HBSS were added to afford 135 nM final drug concentration, incubated at 37 °C for 5 minutes. After incubation time, PBMCs were centrifuged at 400 g for 5 minutes. Supernatant was removed from the cells and pellet resuspended with 200 μL of HBSS. Suspension was transferred to 96 well-plate and run on FACS machine, approximately 1,000-250 cells analysed. The FACS results output represented the mean of the fluorescence intensities (in arbitrary units) measured for cells sorted in every sample.

[3] = test system: neutrophils; assay: as above; conditions: 135 nM
Procedure: as §1, §2

[4] = test system: Jurkat cells; assay: FACS uptake of BODIPY FL conjugates in Jurkat cells (Example 3); conditions: 200 nM
Procedure: FIG. 3B: Conjugate compounds coupled to BODIPY FL were tested for uptake using 200 nM each conjugate and 5 minute incubation with immortalized T lymphocyte cell line, Jurkat cells. Mean fluorescent intensities (MFI). 1,000 cells sorted by FACS. Bars represent mean±SD. Results represent a single experiment done in duplicate.
Materials and methods: Jurkat cells have been previously shown to be defective in the expression of two lipid phosphatases, PTEN (phosphatase and tensin homologue) and SHIP (SH2-domain-containing inositol polyphosphate 5′ phosphatase). The biological implications of SHIP deficiency in T cells remain under evaluation, but the loss of PTEN leads to activation of the phosphatidylinositol 3-kinase (PI3K)-signalling pathway. See Abraham and Weiss, 2004. This activation of PI3K protein is also on NZM40 melanoma cell line, and represents a key mutation for its sustained proliferation. See Silva et al., 2017. For these experiments, Jurkat cells were diluted on RPMI media (supplemented with 10% FBS+1% penicillin-streptomycin) to afford 400 cells/μL. 2 μL of 100 μM stock solutions in DMSO from 138 and pantothenic acid/pantothenic acid derivatives coupled to BODIPY were diluted with 998 μL of RPMI media (supplemented with 10% FBS+1% penicillin-streptomycin) to afford 200 nM solution. 100,000 cells were dispensed to Eppendorf tubes, centrifuged for 1.5 min at 5000 rcf and the supernatant was removed. The cells then were incubated with 500 μL of solutions at 200 nM for 4.5 min and 37 °C. After the incubation time, cells were centrifuged for 1.5 minutes at 5000 rcf. Supernatant was removed and cell pellet re-suspended in 200 μL fresh RPMI media, transferred to 96 well-plate and run on FACS machine, approximately 1,000 cells analysed.

[5] = test system: HT29 (colorectal cancer cell line); assay: FACS uptake of BODIPY FL conjugates (Example 4); conditions: 200 nM, 5 min
Procedure: FIG. 4A: Conjugate compounds coupled to BODIPY FL were tested for uptake using 200 nM each conjugate and 5 minute incubation with colorectal cancer cell line HT29. Mean fluorescent intensities (MFI). 1,000 cells were sorted by FACS.
Materials and methods: The HT-29 line was originally isolated from a primary tumour in 1964 from a person. This cell line is positive for expression of N-ras and overexpression of p53 antigen. The human colon adenocarcinoma cell line HT29, is not only used to study the biology of human colon cancers, but it is receiving special interest in studies focused on food digestion and bioavailability due to the ability to express characteristics of mature intestinal cells. The application of this cell line to transport studies of drugs and food compounds is illustrated, especially when the effect of the mucus layer is considered or used as co-culture in combination with Caco-2 cells. These cells have shown a high rate of glucose consumption and therefore, they require high glucose concentration in the medium. Verhoeck et al., 2015.
For these experiments, HT-29 or MEF cells were diluted on αMEM media (supplemented with 10% FBS+1% penicillin-streptomycin) to give a 250 cells/μL suspension of which 200 μL were aliquoted into each well of a 96 well plate followed by incubation for 24 hours. Next, 2 μL of 100 μM stock solutions in DMSO from the conjugates coupled to BODIPY were diluted with 998 μL of αMEM media to give a 200 nM solution. After 24 hour incubation, media was removed and 200 μL of 138 and pantothenic acid/pantothenic acid derivatives coupled to BODIPY 200 nM solutions were added and cells were incubated for 5 minutes at 37 °C. After 5 minutes, the compounds and DMSO solutions were removed and cells were washed with PBS. Then, 100 μL of TrypLE trypsin were added to each well and incubated for 5 minutes at 37 °C. After this time, 100 μL of DMEM media were added to the wells and samples were sorted through FACS biosort. The studies were completed in duplicated wells.

SMILES: CC1=CC(C)=[N+]2C1=Cc1ccc(CCCn3cc(CCNC(=O)/C=C/NC(=O)[C@H]4OC(C)(C)OCC4(C)C)nn3)n1[B-]2(F)F [Compound 127, (E)-N-((((3-[4,4-Difluoro-5,7-dimethyl-4-bora-3a,4a-diaza-s-indacene-3-yl]propyl)-1H-1,2,3-triazol-4-yl)ethylamino)-3-oxoprop-1-enyl)-2,2,5,5-tetramethyl-1,3-dioxane-4-carboxamide]
- uptake (fluorescence intensities) [1]: showed selectivity
- targeting / fluorescence intensities [2]: showed targeting
- targeting / fluorescence intensities [3]: showed targeting
- uptake / targeting [4]: showed targeting
- uptake (fluorescent intensities) [5]: moderately higher fluorescent intensities

SMILES: CC1=CC(C)=[N+]2C1=Cc1ccc(CCCn3cc(CCNC(=O)/C=C\NC(=O)[C@H](O)C(C)(C)CO)nn3)n1[B-]2(F)F [Compound 128, (Z)—N-((((3-[4,4-Difluoro-5,7-dimethyl-4-bora-3a,4a-diaza-s-indacene-3-yl]propyl)-1H-1,2,3-triazol-4-yl)ethylamino)-3-oxoprop-1-enyl)-2,4-dihydroxy-3,3-dimethylbutanamide]
- uptake (fluorescence intensities) [1]: showed selectivity
- targeting / fluorescence intensities [2]: significant intensities
- targeting / fluorescence intensities [3]: significant intensities
- uptake / targeting [4]: showed targeting
